Test results taken from patent publication US20260285857A1, “BICYCLIC AND HETEROCYCLIC AMIDE COMPOUNDS” (priority 2024, published 2026).

Each molecule was assayed on immunoglobulin light chain protein WIL-FL T46L (assay: Differential scanning fluorimetry (thermal shift) assay). Conditions: Table A; temperature shift [Tm]compound-[Tm]vehicle; recombinant WIL-FL T46L.
Assay type: binding
`Cc1cc(N2CC[C@](C)(c3ccccc3)C2)cn2nc(C34CC(CO3)C4N3C(=O)NC(=O)C3(C)C)nc12` (stereo partly shown) [Compound 79] was tested, and the DSF was “***** (>2.5° C.=*****)”. For `Cc1nnc(CNC23COC(c4nc5c(C)cc(N6CC[C@](C)(c7ccccc7)C6)cn5n4)(C2)C3)[nH]1` [Compound 56], the DSF was “***** (>2.5° C.=*****)”. For `Cc1cc(N2CC[C@](C)(c3ccccc3)C2)cn2nc(C(=O)NCC(C)(C)O)nc12` [Compound 100], the DSF was “***** (>2.5° C.=*****)”. `CCC1(c2ccc(C)cc2)CN(c2cc(C)c3nc(C(=O)N4C[C@@H]5CN(c6cccc(C(=O)O)n6)C[C@@H]5C4)nn3c2)C1` [Compound 396] was tested, and the DSF was “***** (>2.5° C.=*****)”. In the case of `Cc1cc(N2CC[C@](C)(c3ccccc3)C2)cn2nc(S(=O)(=O)NC3CNC3)nc12` [Compound 27, N-(azetidin-3-yl)-8-methyl-6-[(3R)-3-methyl-3-phenyl-pyrrolidin-1-yl]-[1,2,4]triazolo[1,5-a]pyridine-2-sulfonamide], the DSF is reported as “***** (>2.5° C.=*****)”. With `Cc1cc(N2CC[C@](C)(c3ccccc3)C2)cn2nc(C(=O)N3CCOC(C(=O)O)C3)nc12` (stereo partly shown) [Compound 176] the DSF was “***** (>2.5° C.=*****)”. For `Cc1cc(N2CC[C@](C)(c3ccccc3)C2)cn2nc(C(=O)NC34CC(O)(C3)C4)nc12` [Compound 132], the DSF was “***** (>2.5° C.=*****)”. In the case of `Cc1cc(N2CC[C@](C)(c3ccccc3)C2)cn2nc(C(=O)N3C[C@H]4C[C@@H]3C4C(=O)O)nc12` (stereo partly shown) [Compound 210], the DSF is reported as “***** (>2.5° C.=*****)”. `Cc1cc(N2CC[C@](C)(c3ccccc3)C2)cn2nc(C34CC(C(N)=O)(CO3)C4)nc12` [Compound 55] was tested, and the DSF was “***** (>2.5° C.=*****)”. With `Cc1cc(N2CC[C@](C)(c3ccccc3)C2)cn2nc(C(=O)NC3CNC(C(F)(F)F)C3)nc12` (stereo partly shown) [Compound 203] the DSF was “***** (>2.5° C.=*****)”. With `Cc1cc(N2CC[C@](C)(c3ccccc3)C2)cn2nc(C(=O)N3CCn4nc(-c5cc(C(=O)O)ccn5)nc4C3)nc12` [Compound 405] the DSF was “***** (>2.5° C.=*****)”. With `CCC1(c2ccccc2)CN(c2cc(CO)c3nc(C(=O)NC4CCN(c5cccc(C(=O)O)n5)CC4)nn3c2)C1` [Compound 392] the DSF was “***** (>2.5° C.=*****)”. In the case of `Cc1cc(N2CC[C@](C)(c3ccccc3)C2)cn2nc(C(=O)NC3CC4(C3)OCC4N3CCC(C(=O)O)CC3)nc12` (stereo partly shown) [Compound 359], the DSF is reported as “***** (>2.5° C.=*****)”. `Cc1cc(N2CC[C@](C)(c3ccccc3)C2)cn2nc(C(=O)NC3CCC(c4cccc(C(=O)O)n4)OC3)nc12` (stereo partly shown) [Compound 254] was tested, and the DSF was “***** (>2.5° C.=*****)”. With `Cc1cc(N2CC[C@](C)(c3ccccc3)C2)cn2nc(C34CC(CN)(CO3)C4C(N)=O)nc12` (stereo partly shown) [Compound 44] the DSF was “***** (>2.5° C.=*****)”. In the case of `Cc1cc(N2CC[C@@](C)(c3ccccc3)C2)cn2nc(C(=O)NCC(O)C(F)(F)F)nc12` (stereo partly shown) [Compound 202], the DSF is reported as “***** (>2.5° C.=*****)”. With `CNC(=O)c1nc2c(CNC(C)=O)cc(N3CC[C@](C)(c4ccccc4)C3)cn2n1` [Compound 348] the DSF was “***** (>2.5° C.=*****)”. For `Cc1cc(OC[C@H](C)c2ccccc2)cn2nc(C34CC(CO3)C4C(N)=O)nc12` (stereo partly shown) [Compound 437], the DSF was “*** (>1-1.5° C.=***)”. `Cc1cc(N2CC[C@](C)(c3ccccc3)C2)cn2nc(C(=O)NC34CCC(C(=O)O)(C3)C4)nc12` [Compound 207] was tested, and the DSF was “***** (>2.5° C.=*****)”. For `Cc1cc(N2CC[C@](C)(c3ccccc3)C2)cn2nc(C(=O)N3CCCC(C)(C(=O)O)C3)nc12` (stereo partly shown) [Compound 178], the DSF was “***** (>2.5° C.=*****)”. `CCS(=O)(=O)NCc1cc(N2CC[C@](C)(c3ccccc3)C2)cn2nc(C(=O)NC)nc12` [Compound 349] was tested, and the DSF was “***** (>2.5° C.=*****)”. For `Cc1cc(N2CC[C@](C)(c3ccccc3)C2)cn2nc(C(=O)N3CCC(OCC(=O)O)CC3)nc12` [Compound 182], the DSF was “***** (>2.5° C.=*****)”. In the case of `Cc1cc(N2CC[C@](C)(c3ccccc3)C2)cn2nc(C(=O)NC3CC4(C3)CC(N3CCOC(C(=O)O)C3)C4)nc12` (stereo partly shown) [Compound 358], the DSF is reported as “***** (>2.5° C.=*****)”. For `Cc1cc(OC[C@H](C)c2ccccc2)cn2nc(C(=O)NC3CCN(c4cccc(C(=O)O)n4)C3)nc12` (stereo partly shown) [Compound 305], the DSF was “***** (>2.5° C.=*****)”. With `Cc1cc(OC[C@H](C)c2ccccc2)cn2nc(C(=O)N3CCC(C)(O)C3)nc12` (stereo partly shown) [Compound 316] the DSF was “**** (>1.5-2.5° C.=****)”. With `Cc1cc(N2CC[C@](C)(c3ccccc3)C2)cn2nc(C(=O)NC3CC4(C3)CC(C(=O)O)C4)nc12` (stereo partly shown) [Compound 112] the DSF was “***** (>2.5° C.=*****)”. With `CNC(=O)c1cn2cc(N3CC[C@](C)(c4ccccc4)C3)cc(C)c2n1` [Compound 434] the DSF was “***** (>2.5° C.=*****)”. For `Cc1cc(N2CC[C@](C)(c3ccccc3)C2)cn2nc(C(=O)N3CCC4(C3)CN(c3cccc(C(=O)O)n3)C4)nc12` [Compound 241], the DSF was “***** (>2.5° C.=*****)”. In the case of `Cc1cc(N2CC[C@](C)(c3ccccc3)C2)cn2nc(C(=O)NC3C4COCC43)nc12` (stereo partly shown) [Compound 129], the DSF is reported as “***** (>2.5° C.=*****)”. In the case of `Cc1cc(N2CC[C@](C)(c3ccccc3)C2)cn2nc(C(=O)N[C@@H]3CC[C@H]3O)nc12` [Compound 160], the DSF is reported as “***** (>2.5° C.=*****)”. With `Cc1cc(N2CC[C@](C)(c3ccccc3)C2)cn2nc(C(=O)O)nc12` [Compound 184] the DSF was “** (>0.5-1 °C =**)”. `Cc1cc(N2CC[C@](C)(c3ccccc3)C2)cn2nc(C(=O)NC3CNCC3(F)F)nc12` (stereo partly shown) [Compound 150] was tested, and the DSF was “***** (>2.5° C.=*****)”. With `Cc1cc(N2CC[C@](C)(c3ccccc3)C2)cn2nc(C(=O)NC3CCN(c4cccnc4C(=O)O)CC3)nc12` [Compound 265] the DSF was “***** (>2.5° C.=*****)”.

Same assay, conditions: Table B; temperature shift [Tm]compound-[Tm]vehicle; recombinant WIL-FL T46L
In the case of `Cc1cc(N2CC[C@](C)(c3ccccc3)C2)cn2nc(C(=O)N3CCC4(CCN(c5cncc(C(=O)O)c5)C4)C3)nc12` (stereo partly shown) [Compound 717], the DSF is reported as “***** (>2.5° C.=*****)”. `COc1cc(N2C[C@H]3CN(C(=O)c4nc5c(C)cc(N6CC[C@](C)(c7ccccc7)C6)cn5n4)C[C@H]3C2)cc(C(=O)O)n1` [Compound 630] was tested, and the DSF was “***** (>2.5° C.=*****)”. `Cc1cc(N2CC[C@](C)(c3ccccc3)C2)cn2nc(C34CC(CO3)C4c3nc(NS(=O)(=O)C4COC(C(=O)O)C4)n[nH]3)nc12` (stereo partly shown) [Compound 568] was tested, and the DSF was “***** (>2.5° C.=*****)”. For `Cc1cc(N2CC[C@](C)(c3ccccc3)C2)cn2nc(C(=O)N[C@H]3C[C@]4(CCN(c5cccc(C(=O)O)n5)C4)C3)nc12` [Compound 623], the DSF was “***** (>2.5° C.=*****)”. For `Cc1cc(N2CC[C@](C)(c3ccccc3)C2)cn2nc(C34CC(CO3)C4c3nc(N)nn3S(=O)(=O)C3CC(C)(C(=O)O)C3)nc12` (stereo partly shown) [Compound 566], the DSF was “***** (>2.5° C.=*****)”. In the case of `Cc1cc(N2CC[C@](C)(c3ccccc3)C2)cn2nc(C(=O)NC3CC4(CCN(C(=O)CC(C)(O)C(=O)O)C4)C3)nc12` (stereo partly drawn) [Compound 673, 2-hydroxy-2-methyl-4-(2-(8-methyl-6-((R)-3-methyl-3-phenylpyrrolidin-1-yl)-[1,2,4]triazolo[1,5-a]pyridine-2-carboxamido)-6-azaspiro[3.4]octan-6-yl)-4-oxobutanoic acid], the DSF is reported as “***** (>2.5° C.=*****)”. With `Cc1cc(N2CC[C@](C)(c3ccccc3)C2)cn2nc(C(=O)N3CCC4(CCCN4c4cccc(C(=O)O)n4)C3)nc12` (stereo partly drawn) [Compound 675, 6-(7-(8-methyl-6-((R)-3-methyl-3-phenylpyrrolidin-1-yl)-[1,2,4]triazolo[1,5-a]pyridine-2-carbonyl)-1,7-diazaspiro[4.4]nonan-1-yl)picolinic acid] the DSF was “***** (>2.5° C.=*****)”. In the case of `Cc1cc(N2CC[C@](C)(c3ccccc3)C2)cn2nc(C(=O)NC34CCC(CO)(CC3)OC4)nc12` [Compound 602], the DSF is reported as “***** (>2.5° C.=*****)”. With `Cc1cc(N2CC[C@](C)(c3ccccc3)C2)cn2nc(C34CC(N)(CO3)C4c3nc(C)n(C)n3)nc12` (stereo partly shown) [Compound 539] the DSF was “***** (>2.5° C.=*****)”. For `C[C@]1(c2ccccc2)CCN(c2cc(CO)c3nc(C45CC(CO4)C5C(N)=O)nn3c2)C1` (stereo partly shown) [Compound 495], the DSF was “***** (>2.5° C.=*****)”. With `Cc1n[nH]c(C2C3(CO)COC2(c2nc4c(C)cc(N5CC6(CCC6c6ccccc6)C5)cn4n2)C3)n1` (stereo not shown) [Compound 578, [1-[8-methyl-6-(7-phenyl-2-azaspiro[3.3]heptan-2-yl)-[1,2,4]triazolo[1,5-a]pyridin-2-yl]-5-(3-methyl-1H1,2,4-triazol-5-yl)-2-oxabicyclo[2.1.1]hexan-4-yl]methanol] the DSF was “***** (>2.5° C.=*****)”. With `Cc1cc(N2CC[C@](C)(c3ccccc3)C2)cn2nc(C34CC(C(=O)NCc5ccnc(C(=O)O)c5)(CO3)C4)nc12` [Compound 453] the DSF was “***** (>2.5° C.=*****)”. In the case of `Cc1cc(N2CC[C@](C)(c3ccccc3)C2)cn2nc(C34CC(CO3)C4c3ncn[nH]3)nc12` (stereo partly shown) [Compound 494], the DSF is reported as “***** (>2.5° C.=*****)”. With `Cc1cc(N2CC[C@](C)(c3ccccc3)C2)cn2nc(C34CC(CO3)C4NC3(C#N)CC3)nc12` (stereo partly drawn) [Compound 530, 1-((1-(8-methyl-6-((R)-3-methyl-3-phenylpyrrolidin-1-yl)-[1,2,4]triazolo[1,5-a]pyridin-2-yl)-2-oxabicyclo[2.1.1]hexan-5-yl)amino)cyclopropane-1-carbonitrile] the DSF was “***** (>2.5° C.=*****)”. In the case of `Cc1cc(N2CC[C@](C)(c3ccccc3)C2)cn2nc(C(=O)NC3CC[C@@H]3Nc3cccc(C(=O)O)n3)nc12` (stereo partly shown) [Compound 635], the DSF is reported as “***** (>2.5° C.=*****)”. `Cc1cc(N2CC[C@](C)(c3ccccc3)C2)cn2nc(C(=O)N3CC4CCN(c5cccc(C(=O)O)n5)C4C3)nc12` (stereo partly shown) [Compound 645] was tested, and the DSF was “***** (>2.5° C.=*****)”. In the case of `Cc1cc(N2CC[C@](C)(c3ccccc3)C2)cn2nc(C34CC(CO3)C4N3CC4(CC(CO)C4)NC3=O)nc12` (stereo partly shown) [Compound 511], the DSF is reported as “***** (>2.5° C.=*****)”. With `Cc1cc(N2CC[C@](C)(c3ccccc3)C2)cn2nc(C(=O)N3CC[C@@]4(CCN(C(=O)C56CCCC(C(=O)O)(C5)C6)C4)C3)nc12` [Compound 733, 5-((R)-7-(8-methyl-6-((R)-3-methyl-3-phenylpyrrolidin-1-yl)-[1,2,4]triazolo[1,5-a]pyridine-2-carbonyl)-2,7-diazaspiro[4.4]nonane-2-carbonyl)bicyclo[3.1.1]heptane-1-carboxylic acid] the DSF was “***** (>2.5° C.=*****)”. In the case of `Cc1cc(N2CC[C@](C)(c3cccc(F)c3)C2)cn2nc(C34CC(CO3)C4N)nc12` (stereo partly shown) [Compound 508], the DSF is reported as “***** (>2.5° C.=*****)”.
